Measured values: patent publication US20200055839A1 (priority 2017, published 2020)

Test system: NL-RLuc virus
Experiment: Inhibition of HIV replication (NL-RLuc virus, luciferase readout in MT-2 cells)
Assay type: cell-based
Settings: Human immunodeficiency virus 1, MT2, 120 h, MT-2 cells infected with NL-RLuc virus, 5 days of incubation, 10% FBS, at least 2 experiments
Source text: Inhibition of HIV Replication:
A recombinant NL-RLuc proviral clone was constructed in which a section of the nef gene form NL4-3 was replaced with the Renilla Luciferase gene. This virus is fully infectious and can undergo multiple cycles of replication in cell culture. In addition, the luciferous reporter provides a simple and easy method for quantitating the extent of virus growth and consequently, the antiviral activity of test compounds. The plasmid pNLRLuc contains the proviral NL-Rluc DNA cloned into pUC18 at the PvuII site. The NL-RLuc virus was prepared by transfection of 293T cells with the plasmid pNLRLuc. Transfections were performed using the LipofectAMINE PLUS kit form Invitrogen (Carlsbad, Calif.) according to the manufacturer and the virus generated was titered in MT-2 cells. For susceptibility analyses, the titrated virus was used to infect MT-2 cells in the presence of compound, and after 5 days of incubation, cells were processed and quantitated for virus growth by the amount of expressed luciferase. Assay media was RPMI 1640 supplemented with 10% heat inactivated fetal bovine serum (FBS), 100 units/ml penicillin G/100 units/ml streptomycin, 10 mM HEPES buffer pH 7.55 and 2 mM L-glutamine. The results form at least 2 experiments were used to calculate the EC50 values. Luciferase was quantitated using the Dual Luciferase kit form Promega (Madison, Wis.). Susceptibility of viruses to compounds was determined by incubation in the presence of serial dilutions of the compound. The 50% effective concentration (EC50) was calculated by using the exponential form of the median effect equation where (Fa)=1/[1+(ED50/drug conc.)^m](Johnson V A, Byington R T. Infectivity Assay. In Techniques in HIV Research. ed. Aldovini A, Walker B D. 71-76. New York: Stockton Press. 1990).

COCCNc1nc(C)c([C@H](OC(C)(C)C)C(=O)O)c(N2CCC(C)(C)CC2)c1-c1ccc(OCCc2ccc(F)cc2)cc1 [Example 27, (S)-2-(tert-Butoxy)-2-(4-(4,4-dimethylpiperidin-1-yl)-5-(4-(4-fluorophenethoxy)phenyl)-6-((2-methoxyethyl)amino)-2-methylpyridin-3-yl)acetic acid] and Cc1nc(NCCN(C)C)c(-c2ccc(OCCc3ccc(F)cc3)cc2)c(N2CCC(C)(C)CC2)c1[C@H](OC(C)(C)C)C(=O)O [Example 28, (S)-2-(tert-Butoxy)-2-(6-((2-(dimethylamino)ethyl)amino)-4-(4,4-dimethylpiperidin-1-yl)-5-(4-(4-fluorophenethoxy)phenyl)-2-methylpyridin-3-yl)acetic acid] are the same in EC50: 0.7 nM for the first, 0.7 nM for the second.

Compared with Cc1nc(NCCN2CCCCC2)c(-c2ccc(OCCc3ccc(F)cc3)cc2)c(N2CCC(C)(C)CC2)c1[C@H](OC(C)(C)C)C(=O)O [Example 29, (S)-2-(tert-Butoxy)-2-(4-(4,4-dimethylpiperidin-1-yl)-5-(4-(4-fluorophenethoxy)phenyl)-2-methyl-6-((2-(piperidin-1-yl)ethyl)amino)pyridin-3-yl)acetic acid], Cc1nc(NCCCN2CCCCC2)c(-c2ccc(OCCc3ccc(F)cc3)cc2)c(N2CCC(C)(C)CC2)c1[C@H](OC(C)(C)C)C(=O)O [Example 35, (S)-2-(tert-Butoxy)-2-(4-(4,4-dimethylpiperidin-1-yl)-5-(4-(4-fluorophenethoxy)phenyl)-2-methyl-6-((3-(piperidin-1-yl)propyl)amino)pyridin-3-yl)acetic acid] is 5-fold higher in EC50: 0.2 nM for the first, 1 nM for the second.

Going from Cc1nc(NCc2ccn[nH]2)c(-c2ccc(OCCc3ccc(F)cc3)cc2)c(N2CCC(C)(C)CC2)c1[C@H](OC(C)(C)C)C(=O)O [Example 30, (S)-2-(6-(((1H-Pyrazol-5-yl)methyl)amino)-4-(4,4-dimethylpiperidin-1-yl)-5-(4-(4-fluorophenethoxy)phenyl)-2-methylpyridin-3-yl)-2-(tert-butoxy)acetic acid] to Cc1nc(NCCc2c[nH]cn2)c(-c2ccc(OCCc3ccc(F)cc3)cc2)c(N2CCC(C)(C)CC2)c1[C@H](OC(C)(C)C)C(=O)O [Example 32, (S)-2-(6-((2-(H-Imidazol-4-yl)ethyl)amino)-4-(4,4-dimethylpiperidin-1-yl)-5-(4-(4-fluorophenethoxy)phenyl)-2-methylpyridin-3-yl)-2-(tert-butoxy)acetic acid], the EC50 rises from 2 nM to 5 nM (2.5-fold).

Going from Cc1nc(NCCC2CCN(C)CC2)c(-c2ccc(OCCc3ccc(F)cc3)cc2)c(N2CCC(C)(C)CC2)c1[C@H](OC(C)(C)C)C(=O)O [Example 31, (S)-2-(tert-Butoxy)-2-(4-(4,4-dimethylpiperidin-1-yl)-5-(4-(4-fluorophenethoxy)phenyl)-2-methyl-6-((2-(1-methylpiperidin-4-yl)ethyl)amino)pyridin-3-yl)acetic acid] to Cc1nc(NCC2CCN(C)CC2)c(-c2ccc(OCCc3ccc(F)cc3)cc2)c(N2CCC(C)(C)CC2)c1[C@H](OC(C)(C)C)C(=O)O [Example 42, (S)-2-(tert-Butoxy)-2-(4-(4,4-dimethylpiperidin-1-yl)-5-(4-(4-fluorophenethoxy)phenyl)-2-methyl-6-(((1-methylpiperidin-4-yl)methyl)amino)pyridin-3-yl)acetic acid], the EC50 rises from 0.8 nM to 3 nM (3.8-fold).

Cc1nc(NCCn2cccn2)c(-c2ccc(OCCc3ccc(F)cc3)cc2)c(N2CCC(C)(C)CC2)c1[C@H](OC(C)(C)C)C(=O)O [Example 33, (S)-2-(6-((2-(1H-Pyrazol-1-yl)ethyl)amino)-4-(4,4-dimethylpiperidin-1-yl)-5-(4-(4-fluorophenethoxy)phenyl)-2-methylpyridin-3-yl)-2-(tert-butoxy)acetic acid] and Cc1nc(NCCCN(C)C)c(-c2ccc(OCCc3ccc(F)cc3)cc2)c(N2CCC(C)(C)CC2)c1[C@H](OC(C)(C)C)C(=O)O [Example 40, (S)-2-(tert-Butoxy)-2-(6-((3-(dimethylamino)propyl)amino)-4-(4,4-dimethylpiperidin-1-yl)-5-(4-(4-fluorophenethoxy)phenyl)-2-methylpyridin-3-yl)acetic acid] are the same in EC50: 2 nM for the first, 2 nM for the second.

Cc1nc(NCCCN2CCOCC2)c(-c2ccc(OCCc3ccc(F)cc3)cc2)c(N2CCC(C)(C)CC2)c1[C@H](OC(C)(C)C)C(=O)O [Example 34, (S)-2-(tert-Butoxy)-2-(4-(4,4-dimethylpiperidin-1-yl)-5-(4-(4-fluorophenethoxy)phenyl)-2-methyl-6-((3-morpholinopropyl)amino)pyridin-3-yl)acetic acid] and Cc1nc(NCCN2CCN(C)CC2)c(-c2ccc(OCCc3ccc(F)cc3)cc2)c(N2CCC(C)(C)CC2)c1[C@H](OC(C)(C)C)C(=O)O [Example 43, (S)-2-(tert-Butoxy)-2-(4-(4,4-dimethylpiperidin-1-yl)-5-(4-(4-fluorophenethoxy)phenyl)-2-methyl-6-((2-(4-methylpiperazin-1-yl)ethyl)amino)pyridin-3-yl)acetic acid] are within 1.5-fold of each other in EC50: 0.7 nM for the first, 0.6 nM for the second.

First: Cc1nc(-c2cnn(C)c2)c(-c2ccc(OCCc3ccc(F)cc3)cc2)c(N2CCC(C)(C)CC2)c1[C@H](OC(C)(C)C)C(=O)O [Example 36, (S)-2-(tert-Butoxy)-2-(4-(4,4-dimethylpiperidin-1-yl)-5-(4-(4-fluorophenethoxy)phenyl)-2-methyl-6-(1-methyl-H-pyrazol-4-yl)pyridin-3-yl)acetic acid]
Second: Cc1nn(C)cc1-c1nc(C)c([C@H](OC(C)(C)C)C(=O)O)c(N2CCC(C)(C)CC2)c1-c1ccc(OCCc2ccc(F)cc2)cc1 [Example 37, (S)-2-(tert-Butoxy)-2-(6-(1,3-dimethyl-1H-pyrazol-4-yl)-4-(4,4-dimethylpiperidin-1-yl)-5-(4-(4-fluorophenethoxy)phenyl)-2-methylpyridin-3-yl)acetic acid]
The EC50 of the first is 2-fold higher: 4 nM for the first, 2 nM for the second.

First: Cc1n[nH]cc1-c1nc(C)c([C@H](OC(C)(C)C)C(=O)O)c(N2CCC(C)(C)CC2)c1-c1ccc(OCCc2ccc(F)cc2)cc1 [Example 38, (S)-2-(tert-Butoxy)-2-(4-(4,4-dimethylpiperidin-1-yl)-5-(4-(4-fluorophenethoxy)phenyl)-2-methyl-6-(3-methyl-1H-pyrazol-4-yl)pyridin-3-yl)acetic acid]
Second: Cc1nc(-c2cccnc2)c(-c2ccc(OCCc3ccc(F)cc3)cc2)c(N2CCC(C)(C)CC2)c1[C@H](OC(C)(C)C)C(=O)O [Example 41, (S)-2-(tert-Butoxy)-2-(4-(4,4-dimethylpiperidin-1-yl)-3-(4-(4-fluorophenethoxy)phenyl)-6-methyl-[2, 3′-bipyridin]-5-yl)acetic acid]
The EC50 of the first is 2-fold higher: 8 nM for the first, 4 nM for the second. The second is the more potent here.

Cc1nc(-c2cncnc2)c(-c2ccc(OCCc3ccc(F)cc3)cc2)c(N2CCC(C)(C)CC2)c1[C@H](OC(C)(C)C)C(=O)O [Example 39, (S)-2-(tert-Butoxy)-2-(4-(4,4-dimethylpiperidin-1-yl)-5-(4-(4-fluorophenethoxy)phenyl)-2-methyl-6-(pyrimidin-5-yl)pyridin-3-yl)acetic acid] and Cc1nc(NCC2CCOCC2)c(-c2ccc(OCCc3ccc(F)cc3)cc2)c(N2CCC(C)(C)CC2)c1[C@H](OC(C)(C)C)C(=O)O [Example 44, (S)-2-(tert-Butoxy)-2-(4-(4,4-dimethylpiperidin-1-yl)-5-(4-(4-fluorophenethoxy)phenyl)-2-methyl-6-(((tetrahydro-2H-pyran-4-yl)methyl)amino)pyridin-3-yl)acetic acid] are the same in EC50: 3 nM for the first, 3 nM for the second.
